Bridge positions count the residues as written; N and C are the ends. Square brackets hold non-standard residues; d marks the D form. Side chains are listed from the residue outwards. Peptide text beside a SMILES is read from it. I, II: the chains in the order shown. * marks the point of attachment. Stearoyl = CCCCCCCCCCCCCCCCCC(=O)*; Palmitoyl = CCCCCCCCCCCCCCCC(=O)*
Tests used:
Type in all cases: cell-based
HEK293 cells [1] = assay: Cell viability by PrestoBlue assay after transfection, HEK cells; details: 4 h
HeLa cells = assay: Cell viability by PrestoBlue assay after transfection, HeLa cells; details: 4 h
HEK293 cells [2] = details: 1 h

SMILES | % viability HEK cells (HEK293 cells [1]) [%] | % viability HeLa cells (HeLa cells) [%] | transfection of HEK cells with protease inhibition (HEK293 cells [2]) [%]
CCCCCCCCCCCCCCCCCC(=O)NCCCC[C@H](NC(=O)[C@H](CCCCNC(=O)[C@H](CC(C)C)NC(=O)[C@H](CCCCN)NC(=O)[C@H](CCCCNC(=O)[C@H](CC(C)C)NC(=O)[C@H](CCCCN)NC(=O)[C@H](CCCCNC(=O)[C@H](CC(C)C)NC(=O)[C@@H](N)CCCCN)NC(=O)[C@H](CC(C)C)NC(=O)[C@@H](N)CCCCN)NC(=O)[C@H](CC(C)C)NC(=O)[C@H](CCCCN)NC(=O)[C@H](CCCCNC(=O)[C@H](CC(C)C)NC(=O)[C@@H](N)CCCCN)NC(=O)[C@H](CC(C)C)NC(=O)[C@@H](N)CCCCN)NC(=O)[C@H](CC(C)C)NC(=O)[C@H](CCCCN)NC(=O)[C@H](CCCCNC(=O)[C@H](CC(C)C)NC(=O)[C@H](CCCCN)NC(=O)[C@H](CCCCNC(=O)[C@H](CC(C)C)NC(=O)[C@@H](N)CCCCN)NC(=O)[C@H](CC(C)C)NC(=O)[C@@H](N)CCCCN)NC(=O)[C@H](CC(C)C)NC(=O)[C@H](CCCCN)NC(=O)[C@H](CCCCNC(=O)[C@H](CC(C)C)NC(=O)[C@@H](N)CCCCN)NC(=O)[C@H](CC(C)C)NC(=O)[C@@H](N)CCCCN)C(N)=O [Z1] (I: H-KLK([Leu-Lys])KLKKLKK(Stearoyl)-NH2 / II: H-KLK([Leu-Lys])KLKKL / III: H-KLK([Leu-Lys])KL / IV: H-KLK([Leu-Lys])KL; amide I:6-IV:C, I:9-II:C, II:6-III:C) | 64 ± 7 | 51 ± 6 | 42
CCCCCCCCCCCCCCCCCC(=O)NCCCC[C@@H](NC(=O)[C@@H](CCCCNC(=O)[C@@H](CC(C)C)NC(=O)[C@@H](CC(C)C)NC(=O)[C@@H](CCCCNC(=O)[C@@H](CC(C)C)NC(=O)[C@@H](CC(C)C)NC(=O)[C@@H](CCCCNC(=O)[C@@H](CC(C)C)NC(=O)[C@H](N)CCCCN)NC(=O)[C@@H](CC(C)C)NC(=O)[C@H](N)CCCCN)NC(=O)[C@@H](CC(C)C)NC(=O)[C@@H](CC(C)C)NC(=O)[C@@H](CCCCNC(=O)[C@@H](CC(C)C)NC(=O)[C@H](N)CCCCN)NC(=O)[C@@H](CC(C)C)NC(=O)[C@H](N)CCCCN)NC(=O)[C@@H](CC(C)C)NC(=O)[C@@H](CC(C)C)NC(=O)[C@@H](CCCCNC(=O)[C@@H](CC(C)C)NC(=O)[C@@H](CC(C)C)NC(=O)[C@@H](CCCCNC(=O)[C@@H](CC(C)C)NC(=O)[C@H](N)CCCCN)NC(=O)[C@@H](CC(C)C)NC(=O)[C@H](N)CCCCN)NC(=O)[C@@H](CC(C)C)NC(=O)[C@@H](CC(C)C)NC(=O)[C@@H](CCCCNC(=O)[C@@H](CC(C)C)NC(=O)[C@H](N)CCCCN)NC(=O)[C@@H](CC(C)C)NC(=O)[C@H](N)CCCCN)C(N)=O [Z32] (I: H-[dK][dL][dK]([dL-dK])[dL][dL][dK][dL][dL][dK][dK](Stearoyl)-NH2 / II: H-[dK][dL][dK]([dL-dK])[dL][dL][dK][dL][dL] / III: H-[dK][dL][dK]([dL-dK])[dL][dL] / IV: H-[dK][dL][dK]([dL-dK])[dL][dL]; amide I:6-IV:C, I:9-II:C, II:6-III:C) | 111 ± 1 | 97 ± 4 | 
CCCCCCCCCCCCCCCC(=O)NCCCC[C@@H](NC(=O)[C@@H](CCCCNC(=O)[C@@H](CC(C)C)NC(=O)[C@@H](CCCNC(=N)N)NC(=O)[C@@H](CCCCNC(=O)[C@@H](CC(C)C)NC(=O)[C@@H](CCCNC(=N)N)NC(=O)[C@@H](CCCCNC(=O)[C@@H](CC(C)C)NC(=O)[C@H](N)CCCNC(=N)N)NC(=O)[C@@H](CC(C)C)NC(=O)[C@H](N)CCCNC(=N)N)NC(=O)[C@@H](CC(C)C)NC(=O)[C@@H](CCCNC(=N)N)NC(=O)[C@@H](CCCCNC(=O)[C@@H](CC(C)C)NC(=O)[C@H](N)CCCNC(=N)N)NC(=O)[C@@H](CC(C)C)NC(=O)[C@H](N)CCCNC(=N)N)NC(=O)[C@@H](CC(C)C)NC(=O)[C@@H](CCCNC(=N)N)NC(=O)[C@@H](CCCCNC(=O)[C@@H](CC(C)C)NC(=O)[C@@H](CCCNC(=N)N)NC(=O)[C@@H](CCCCNC(=O)[C@@H](CC(C)C)NC(=O)[C@H](N)CCCNC(=N)N)NC(=O)[C@@H](CC(C)C)NC(=O)[C@H](N)CCCNC(=N)N)NC(=O)[C@@H](CC(C)C)NC(=O)[C@@H](CCCNC(=N)N)NC(=O)[C@@H](CCCCNC(=O)[C@@H](CC(C)C)NC(=O)[C@H](N)CCCNC(=N)N)NC(=O)[C@@H](CC(C)C)NC(=O)[C@H](N)CCCNC(=N)N)C(N)=O [Z33] (I: H-[dR][dL][dK]([dL-dR])[dR][dL][dK][dR][dL][dK][dK](Palmitoyl)-NH2 / II: H-[dR][dL][dK]([dL-dR])[dR][dL][dK][dR][dL] / III: H-[dR][dL][dK]([dL-dR])[dR][dL] / IV: H-[dR][dL][dK]([dL-dR])[dR][dL]; amide I:6-IV:C, I:9-II:C, II:6-III:C) | 84 ± 1 | 93 ± 6 | 
CCCCCCCCCCCCCCCCCC(=O)NCCCC[C@@H](NC(=O)[C@@H](CCCCNC(=O)[C@@H](CC(C)C)NC(=O)[C@@H](CCCNC(=N)N)NC(=O)[C@@H](CCCCNC(=O)[C@@H](CC(C)C)NC(=O)[C@@H](CCCNC(=N)N)NC(=O)[C@@H](CCCCNC(=O)[C@@H](CC(C)C)NC(=O)[C@H](N)CCCNC(=N)N)NC(=O)[C@@H](CC(C)C)NC(=O)[C@H](N)CCCNC(=N)N)NC(=O)[C@@H](CC(C)C)NC(=O)[C@@H](CCCNC(=N)N)NC(=O)[C@@H](CCCCNC(=O)[C@@H](CC(C)C)NC(=O)[C@H](N)CCCNC(=N)N)NC(=O)[C@@H](CC(C)C)NC(=O)[C@H](N)CCCNC(=N)N)NC(=O)[C@@H](CC(C)C)NC(=O)[C@@H](CCCNC(=N)N)NC(=O)[C@@H](CCCCNC(=O)[C@@H](CC(C)C)NC(=O)[C@@H](CCCNC(=N)N)NC(=O)[C@@H](CCCCNC(=O)[C@@H](CC(C)C)NC(=O)[C@H](N)CCCNC(=N)N)NC(=O)[C@@H](CC(C)C)NC(=O)[C@H](N)CCCNC(=N)N)NC(=O)[C@@H](CC(C)C)NC(=O)[C@@H](CCCNC(=N)N)NC(=O)[C@@H](CCCCNC(=O)[C@@H](CC(C)C)NC(=O)[C@H](N)CCCNC(=N)N)NC(=O)[C@@H](CC(C)C)NC(=O)[C@H](N)CCCNC(=N)N)C(=O)N[C@H](C)C(N)=O [Z35] (I: H-[dR][dL][dK]([dL-dR])[dR][dL][dK][dR][dL][dK][dK](Stearoyl)[dA]-NH2 / II: H-[dR][dL][dK]([dL-dR])[dR][dL][dK][dR][dL] / III: H-[dR][dL][dK]([dL-dR])[dR][dL] / IV: H-[dR][dL][dK]([dL-dR])[dR][dL]; amide I:6-IV:C, I:9-II:C, II:6-III:C) | 72 ± 5 | 94 ± 6 | 
CCCCCCCCCCCCCCCCCC(=O)NCCCC[C@@H](NC(=O)[C@@H](CCCCNC(=O)[C@@H](CC(C)C)NC(=O)[C@@H](CC(C)C)NC(=O)[C@@H](CCCCNC(=O)[C@@H](CC(C)C)NC(=O)[C@@H](CCCNC(=N)N)NC(=O)[C@@H](CCCCNC(=O)[C@@H](CC(C)C)NC(=O)[C@H](N)CCCNC(=N)N)NC(=O)[C@@H](CC(C)C)NC(=O)[C@H](N)CCCNC(=N)N)NC(=O)[C@@H](CC(C)C)NC(=O)[C@@H](CCCNC(=N)N)NC(=O)[C@@H](CCCCNC(=O)[C@@H](CC(C)C)NC(=O)[C@H](N)CCCNC(=N)N)NC(=O)[C@@H](CC(C)C)NC(=O)[C@H](N)CCCNC(=N)N)NC(=O)[C@@H](CC(C)C)NC(=O)[C@@H](CC(C)C)NC(=O)[C@@H](CCCCNC(=O)[C@@H](CC(C)C)NC(=O)[C@@H](CCCNC(=N)N)NC(=O)[C@@H](CCCCNC(=O)[C@@H](CC(C)C)NC(=O)[C@H](N)CCCNC(=N)N)NC(=O)[C@@H](CC(C)C)NC(=O)[C@H](N)CCCNC(=N)N)NC(=O)[C@@H](CC(C)C)NC(=O)[C@@H](CCCNC(=N)N)NC(=O)[C@@H](CCCCNC(=O)[C@@H](CC(C)C)NC(=O)[C@H](N)CCCNC(=N)N)NC(=O)[C@@H](CC(C)C)NC(=O)[C@H](N)CCCNC(=N)N)C(N)=O [Z36] (I: H-[dR][dL][dK]([dL-dR])[dR][dL][dK][dL][dL][dK][dK](Stearoyl)-NH2 / II: H-[dR][dL][dK]([dL-dR])[dR][dL][dK][dL][dL] / III: H-[dR][dL][dK]([dL-dR])[dR][dL] / IV: H-[dR][dL][dK]([dL-dR])[dR][dL]; amide I:6-IV:C, I:9-II:C, II:6-III:C) | 87 ± 2 | 92 ± 6 | 
CCCCCCCCCCCCCCCCCC(=O)NCCCC[C@@H](NC(=O)[C@@H](CCCCNC(=O)[C@@H](CC(C)C)NC(=O)[C@@H](CC(C)C)NC(=O)[C@@H](CCCCNC(=O)[C@@H](CC(C)C)NC(=O)[C@@H](CC(C)C)NC(=O)[C@@H](CCCCNC(=O)[C@@H](CC(C)C)NC(=O)[C@H](N)CCCNC(=N)N)NC(=O)[C@@H](CC(C)C)NC(=O)[C@H](N)CCCNC(=N)N)NC(=O)[C@@H](CC(C)C)NC(=O)[C@@H](CC(C)C)NC(=O)[C@@H](CCCCNC(=O)[C@@H](CC(C)C)NC(=O)[C@H](N)CCCNC(=N)N)NC(=O)[C@@H](CC(C)C)NC(=O)[C@H](N)CCCNC(=N)N)NC(=O)[C@@H](CC(C)C)NC(=O)[C@@H](CC(C)C)NC(=O)[C@@H](CCCCNC(=O)[C@@H](CC(C)C)NC(=O)[C@@H](CC(C)C)NC(=O)[C@@H](CCCCNC(=O)[C@@H](CC(C)C)NC(=O)[C@H](N)CCCNC(=N)N)NC(=O)[C@@H](CC(C)C)NC(=O)[C@H](N)CCCNC(=N)N)NC(=O)[C@@H](CC(C)C)NC(=O)[C@@H](CC(C)C)NC(=O)[C@@H](CCCCNC(=O)[C@@H](CC(C)C)NC(=O)[C@H](N)CCCNC(=N)N)NC(=O)[C@@H](CC(C)C)NC(=O)[C@H](N)CCCNC(=N)N)C(N)=O [Z37] (I: H-[dR][dL][dK]([dL-dR])[dL][dL][dK][dL][dL][dK][dK](Stearoyl)-NH2 / II: H-[dR][dL][dK]([dL-dR])[dL][dL][dK][dL][dL] / III: H-[dR][dL][dK]([dL-dR])[dL][dL] / IV: H-[dR][dL][dK]([dL-dR])[dL][dL]; amide I:6-IV:C, I:9-II:C, II:6-III:C) | 103 ± 1 | 95 ± 5 | 
